# Laboratory results reported in patent US20100015164A1, “Compositions and Methods for Modulating Osteoblast Cell Differentiation and Bone Generation Through HIF-1a” (THE UAB RESEARCH FOUNDATION, priority 2005, published 2010).
# Entries after “also recorded” stand apart in the source; their conditions may differ.
# Experiments:
# HIF-1α [1] = conditions: in vitro and in vivo, published studies; cited from earlier work
# VEGF = VEGF mRNA expression by real time PCR in osteoblasts exposed to cobalt chloride; format: cell-based, mouse; conditions: 5, 10, or 50 ng/mL cobalt chloride, 3, 12, or 24 hours
# Experimental: The osteoblasts were exposed to 5, 10, or 50 ng/mL of cobalt chloride. After, 3, 12, or 24 hours, cells were harvested and mRNA was collected. Real time PCR was performed with β-actin as control. […] Additionally, they lend support to the approach of using VEGF upregulation as assessed by real time PCR as a surrogate for HIF-1α activation in initial screening rather than the more time consuming approach of western blotting for HIF-1α.
# HIF-1α [2] = assay: Western blotting of nuclear protein for HIF-1α in primary osteoblasts exposed to cobalt; format: cell-based, mouse; conditions: primary osteoblast cultures; 5, 10, or 50 ng/ml cobalt; 0, 3, 6, 12, and 24 hours of exposure
# Source text: The class of PHDs acting on HIF-1α require oxygen, iron, and 2-oxyglutarate as co-factors. Small molecules that block these enzymes are iron chelators, such as cobalt and desferrioxamine, or 2-oxyglutarate analogs such as L-mimosinc and 3,4 DHB, and DMOG. A schematic of the PHD enzyme and the structures of the 2-oxyglutarate analogs is reproduced in FIG. 5. A number of previous studies have shown an increase of VEGF and other HIF-1α target genes in cells treated with the small molecule PHD inhibitors selected here. Because the effects of the PHD inhibiting agents have not been tested in primary osteoblasts, studies were performed to evaluate their ability to increase HIF-1α. Osteoblasts were grown to near confluence, and then exposed to varying concentrations of cobalt chloride. At time zero, and after 3, 6, 12, and 24 hours of exposure, the cells were harvested and nuclear protein was extracted.
SMILES,HIF-1α activation (HIF-1α [1]),"VEGF mRNA expression (real time PCR, β-actin as control) (VEGF)","VEGF mRNA expression (real time PCR, β-actin as control) (VEGF; listed as cobalt)",nuclear HIF-1α (Western blot of nuclear extracts) (HIF-1α [2])
CC(=O)N(O)CCCCCNC(=O)CCC(=O)N(O)CCCCCNC(=O)CCC(=O)N(O)CCCCCN [desferrioxamine],increase HIF-1α activation in vitro and in vivo,–,–,–
[Cl][Co][Cl] [cobalt chloride],increase HIF-1α activation in vitro and in vivo,Marked upregulation of VEGF expression,Marked upregulation of VEGF was seen after 12 and 24 hours,time and dose dependent increase in nuclear HIF-1α; also recorded: increased nuclear accumulation after cobalt treatment at all doses
